The test addresses T1, Na+/I− symporter (NIS) (Rattus norvegicus, UniProt Q63008).
T1 sequence (Q63008 1-618): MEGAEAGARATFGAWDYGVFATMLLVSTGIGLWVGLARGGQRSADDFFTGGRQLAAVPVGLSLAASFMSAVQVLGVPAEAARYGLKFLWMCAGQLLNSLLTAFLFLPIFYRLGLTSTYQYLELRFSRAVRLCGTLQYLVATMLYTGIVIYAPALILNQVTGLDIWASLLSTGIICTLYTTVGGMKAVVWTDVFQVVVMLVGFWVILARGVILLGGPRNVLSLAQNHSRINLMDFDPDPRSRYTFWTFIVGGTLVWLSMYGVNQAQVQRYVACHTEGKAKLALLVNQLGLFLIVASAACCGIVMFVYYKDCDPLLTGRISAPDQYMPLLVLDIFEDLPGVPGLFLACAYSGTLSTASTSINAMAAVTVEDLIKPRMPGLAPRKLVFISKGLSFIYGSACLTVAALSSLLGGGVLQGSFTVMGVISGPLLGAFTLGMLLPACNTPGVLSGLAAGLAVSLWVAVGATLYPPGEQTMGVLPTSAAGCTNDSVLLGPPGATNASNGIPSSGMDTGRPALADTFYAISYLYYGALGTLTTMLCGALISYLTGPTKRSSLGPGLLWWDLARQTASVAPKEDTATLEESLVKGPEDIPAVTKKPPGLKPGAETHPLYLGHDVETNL
Kind of test: inhibition of NIS-mediated […] radioiodide uptake. Type of test: cell-based.

For orientation: IC50 means the concentration needed to halve the response being measured. Read a low IC50 as greater potency in that assay.

Consider `[O-][Cl+3]([O-])([O-])O` [perchlorate], for which the half-inhibitory concentration (IC50) was 3 µM.

The values above are taken from PMC3736852 (Endocrine-related cancer, 2012).
